Publication PMC7322046 (Heliyon, 2020)

Legend:
[1] = test system: human dipeptidyl peptidase IV (DPP4); conditions: dipeptides; cited from earlier work
[2] = target: Human recombinant DPP4 (Homo sapiens, UniProt P27487); experiment: DPP4 inhibition assay; type: biochemical; conditions: test tripeptide 10 μg/ml; 100 μM Gly-Pro-AMC, 37 °C, 30 min, pH 8.0
Chain of Human recombinant DPP4 (P27487 whole entry): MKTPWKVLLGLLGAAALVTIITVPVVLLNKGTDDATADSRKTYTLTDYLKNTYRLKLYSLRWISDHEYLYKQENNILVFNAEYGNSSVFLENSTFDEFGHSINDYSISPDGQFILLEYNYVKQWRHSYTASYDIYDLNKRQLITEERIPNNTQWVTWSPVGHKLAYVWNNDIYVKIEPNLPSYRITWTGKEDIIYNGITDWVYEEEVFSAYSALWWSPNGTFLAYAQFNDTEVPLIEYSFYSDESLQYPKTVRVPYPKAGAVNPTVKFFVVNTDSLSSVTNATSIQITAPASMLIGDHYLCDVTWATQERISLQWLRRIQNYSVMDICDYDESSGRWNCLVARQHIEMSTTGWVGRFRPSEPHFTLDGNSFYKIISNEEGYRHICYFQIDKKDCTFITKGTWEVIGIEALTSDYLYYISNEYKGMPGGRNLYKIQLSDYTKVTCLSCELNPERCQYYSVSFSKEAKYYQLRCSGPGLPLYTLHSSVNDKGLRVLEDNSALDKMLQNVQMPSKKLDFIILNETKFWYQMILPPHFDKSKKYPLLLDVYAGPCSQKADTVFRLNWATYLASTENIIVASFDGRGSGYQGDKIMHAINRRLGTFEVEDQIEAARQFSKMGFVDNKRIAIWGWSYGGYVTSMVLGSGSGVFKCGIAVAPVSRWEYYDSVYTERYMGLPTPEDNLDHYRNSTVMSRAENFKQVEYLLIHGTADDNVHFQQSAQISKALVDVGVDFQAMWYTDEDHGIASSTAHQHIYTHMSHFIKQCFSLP

| Substance | DPP4 inhibitory activity (in words) [1] | inhibition ratio [2] |
| --- | --- | --- |
| Val-Pro | high inhibitory activity | – |
| Ile-Pro | high inhibitory activity | – |
| Val-Pro-Leu [VPL] | – | 31.0% |
